Legend:
[1] = Metal chelating activity assessed as Cu2+-compound complex formation by measuring binding constant in 0.1 M KNO3 at 25 degreeC
[2] = Metal chelating activity assessed as Zn2+-compound complex formation by measuring binding constant in 0.1 M KNO3 at 25 degreeC

## c1ccc(CNCc2ccccn2)nc1
[1]
  log K: 9.3
[2]
  log K: 7.6

From ChEMBL document CHEMBL4665634, “Inhibiting Aβ toxicity in Alzheimer's disease by a pyridine amine derivative” (Eur J Med Chem, 2019)
